Experimental data reported in patent US12577226B2, “Compounds for treating Huntington's disease” (PTC THERAPEUTICS, INC., priority 2019, dated 2026).

Test system: Endogenous Huntingtin Protein (capture with MW1 (expanded polyglutamine) or MAB2166 antibody)
Test: Endogenous Huntingtin Protein Assay (ELISA-based Meso Scale Discovery electrochemiluminescence assay)
Assay type: cell-based
Settings: MSD electrochemiluminescence platform
How it was run: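 MSD electrochemiluminescence sandwich immunoassay: plates coated with 1 μg/mL MW1 or MAB2166 capture antibody, samples incubated overnight at 4 °C. Detection with rabbit monoclonal #5656S then SULFO-TAG anti-rabbit (each 0.25 μg/mL, 1 h RT).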

IC50 | Molecule
≤ 100 nM | 5-(8-ethyl-2-methylimidazo[1,2-b]pyridazin-6-yl)-2-(6-{[(3R,4S)-3-fluoro-2,2,6,6-tetramethylpiperidin-4-yl]oxy}pyridazin-3-yl)pyridin-3-ol and 5-(8-ethyl-2-methylimidazo[1,2-b]pyridazin-6-yl)-2-(6-{[(3S,4R)-3-fluoro-2,2,6,6-tetramethylpiperidin-4-yl]oxy}pyridazin-3-yl)pyridin-3-ol [Compound 60]
≤ 100 nM | CC(C)[C@H]1CN(c2ccc(-c3ncc(-c4cc(F)c5nn(C)cc5c4)cc3O)nn2)CCN1 [Compound 122, 5-(7-fluoro-2-methyl-2H-indazol-5-yl)-2-{6-[(3S)-3-(propan-2-yl)piperazin-1-yl]pyridazin-3-yl}pyridin-3-ol]
≤ 100 nM | COc1cc(-c2cnc(-c3cnc(N4CCN(C)CC4)nn3)c(O)c2)cc2cn(C)nc12 [Compound 150, 5-(7-methoxy-2-methyl-2H-indazol-5-yl)-2-[3-(4-methylpiperazin-1-yl)-1,2,4-triazin-6-yl]pyridin-3-ol]
≤ 100 nM | CC1(C)CC(Oc2ccc(-c3ncc(-n4ccnc4)cc3O)nn2)CC(C)(C)N1 [Compound 5, 5-(1H-imidazol-1-yl)-2-{6-[(2,2,6,6-tetramethylpiperidin-4-yl)oxy]pyridazin-3-yl}pyridin-3-ol]
≤ 100 nM | CC(C)(C)N[C@H]1CCN(c2ncc(-c3ncc(-c4c[nH]nc4F)cc3O)nn2)C1 [Compound 145, 2-{3-[(3S)-3-(tert-butylamino)pyrrolidin-1-yl]-1,2,4-triazin-6-yl}-5-(3-fluoro-1H-pyrazol-4-yl)pyridin-3-ol]
≤ 100 nM | 5-(2,8-dimethylimidazo[1,2-b]pyridazin-6-yl)-2-(6-{[(3R,4S)-3-fluoro-2,2,6,6-tetramethylpiperidin-4-yl]oxy}pyridazin-3-yl)pyridin-3-ol and 5-(2,8-dimethylimidazo[1,2-b]pyridazin-6-yl)-2-(6-{[(3S,4R)-3-fluoro-2,2,6,6-tetramethylpiperidin-4-yl]oxy}pyridazin-3-yl)pyridin-3-ol [Compound 47]

Second part, the molecule before the results:

Molecule | IC50
CN(c1ccc(-c2ncc(-c3ncco3)cc2O)nn1)C1CC(C)(C)NC(C)(C)C1 [Compound 14, 2-{6-[methyl(2,2,6,6-tetramethylpiperidin-4-yl)amino]pyridazin-3-yl}-5-(1,3-oxazol-2-yl)pyridin-3-ol] | ≤ 100 nM
CC1(C)C[C@H](Oc2ccc(-c3ncc(-c4cn[nH]c4F)cc3O)nn2)[C@H](F)C(C)(C)N1 (single isomer, unassigned) [Compound 22, 5-(5-fluoro-1H-pyrazol-4-yl)-2-(6-{[(3R,4S)-3-fluoro-2,2,6,6-tetramethylpiperidin-4-yl]oxy}pyridazin-3-yl)pyridin-3-ol or 5-(5-fluoro-1H-pyrazol-4-yl)-2-(6-{[(3S,4R)-3-fluoro-2,2,6,6-tetramethylpiperidin-4-yl]oxy}pyridazin-3-yl)pyridin-3-ol] | 100 to 500 nM
2-(6-{[(3R,4S)-3-fluoro-2,2,6,6-tetramethylpiperidin-4-yl]oxy}pyridazin-3-yl)-5-(2-methylimidazo[1,2-a]pyridin-6-yl)pyridin-3-ol and 2-(6-{[(3S,4R)-3-fluoro-2,2,6,6-tetramethylpiperidin-4-yl]oxy}pyridazin-3-yl)-5-(2-methylimidazo[1,2-a]pyridin-6-yl)pyridin-3-ol [Compound 43] | ≤ 100 nM
[2H]C([2H])([2H])n1cc(-c2cnc(-c3cnc(N4CCC(NC(C)(C)C)C4)nn3)c(O)c2)cn1 (centres unmarked) [Compound 137, 2-{3-[3-(tert-butylamino)pyrrolidin-1-yl]-1,2,4-triazin-6-yl}-5-[1-(^2H3)methyl-1H-pyrazol-4-yl]pyridin-3-ol] | ≤ 100 nM
5-(2,8-dimethylimidazo[1,2-a]pyridin-6-yl)-2-(6-{[(3R,4S)-3-fluoro-2,2,6,6-tetramethylpiperidin-4-yl]oxy}pyridazin-3-yl)pyridin-3-ol and 5-(2,8-dimethylimidazo[1,2-a]pyridin-6-yl)-2-(6-{[(3S,4R)-3-fluoro-2,2,6,6-tetramethylpiperidin-4-yl]oxy}pyridazin-3-yl)pyridin-3-ol [Compound 44] | ≤ 100 nM
